Tests used:
[1] = molecular target: 5-hydroxytryptamine receptor 4 (Cavia porcellus, UniProt O70528); assay type: cell membranes, Dunkin-Hartley, Striatum, Membrane; further: in other assays of this panel Not Active means under 50% inhibition at 10 µM
Endothelin-1 receptor = molecular target: T1, Endothelin-1 receptor (Homo sapiens, UniProt P25101); assay type: cell membranes, Membrane; details: cho-k1; further: in other assays of this panel Not Active means under 50% inhibition at 10 µM
T1 sequence (P25101 whole entry): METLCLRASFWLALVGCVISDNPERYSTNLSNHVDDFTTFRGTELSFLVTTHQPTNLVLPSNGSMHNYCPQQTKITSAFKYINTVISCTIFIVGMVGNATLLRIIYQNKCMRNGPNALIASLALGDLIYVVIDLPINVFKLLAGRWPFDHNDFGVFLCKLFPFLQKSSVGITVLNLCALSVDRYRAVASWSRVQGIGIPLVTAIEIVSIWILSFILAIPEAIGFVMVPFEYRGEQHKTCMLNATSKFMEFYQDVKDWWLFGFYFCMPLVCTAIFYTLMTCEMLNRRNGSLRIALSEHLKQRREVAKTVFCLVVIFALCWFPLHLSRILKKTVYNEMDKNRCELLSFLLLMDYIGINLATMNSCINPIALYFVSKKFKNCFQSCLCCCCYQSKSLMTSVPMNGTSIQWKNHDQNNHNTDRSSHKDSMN

[2] = molecular target: 5-hydroxytryptamine receptor 2B (Homo sapiens, UniProt P41595); assay type: cell membranes, CHO-K1, Membrane; details: cho-k1; further: in other assays of this panel Not Active means under 50% inhibition at 10 µM
Adenosine receptor A1 = molecular target: T2, Adenosine receptor A1 (Homo sapiens, UniProt P30542); assay type: cell membranes, CHO, Membrane; details: cho;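 further: radioligand binding assay at the adenosine A1 receptor, with DPCPX serving as the labelled ligand; in other assays of this panel Not Active means under 50% inhibition at 10 µM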
T2 sequence (P30542 whole entry): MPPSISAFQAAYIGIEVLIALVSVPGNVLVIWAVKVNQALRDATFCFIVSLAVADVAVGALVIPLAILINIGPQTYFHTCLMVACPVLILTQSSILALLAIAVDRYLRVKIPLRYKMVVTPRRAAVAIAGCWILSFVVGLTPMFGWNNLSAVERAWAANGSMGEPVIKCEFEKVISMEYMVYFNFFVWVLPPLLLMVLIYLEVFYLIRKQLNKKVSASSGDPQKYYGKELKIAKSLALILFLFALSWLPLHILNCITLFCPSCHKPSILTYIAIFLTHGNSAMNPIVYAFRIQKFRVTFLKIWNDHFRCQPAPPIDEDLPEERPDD

[3] = molecular target: C-C chemokine receptor type 2 (Homo sapiens, UniProt P41597); assay type: cell membranes, CHO-K1, Membrane; details: cho-k1; further: in other assays of this panel Not Active means under 50% inhibition at 10 µM
Cathepsin G = molecular target: T3, Cathepsin G (Homo sapiens, UniProt P08311); assay type: tissue-based; details: neutrophil
T3 sequence (P08311 whole entry): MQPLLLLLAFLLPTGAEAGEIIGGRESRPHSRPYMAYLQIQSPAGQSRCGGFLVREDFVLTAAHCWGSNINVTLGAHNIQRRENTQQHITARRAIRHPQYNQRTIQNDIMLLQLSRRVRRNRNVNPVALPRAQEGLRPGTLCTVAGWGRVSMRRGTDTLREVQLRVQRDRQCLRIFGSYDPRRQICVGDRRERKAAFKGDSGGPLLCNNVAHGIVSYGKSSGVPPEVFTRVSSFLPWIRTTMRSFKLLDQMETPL

[4] = molecular target: T4, C-X-C chemokine receptor type 2 (Homo sapiens, UniProt P25025); assay type: cell membranes, Membrane; details: cho-k1; further: in other assays of this panel Not Active means under 50% inhibition at 10 µM
T4 sequence (P25025 whole entry): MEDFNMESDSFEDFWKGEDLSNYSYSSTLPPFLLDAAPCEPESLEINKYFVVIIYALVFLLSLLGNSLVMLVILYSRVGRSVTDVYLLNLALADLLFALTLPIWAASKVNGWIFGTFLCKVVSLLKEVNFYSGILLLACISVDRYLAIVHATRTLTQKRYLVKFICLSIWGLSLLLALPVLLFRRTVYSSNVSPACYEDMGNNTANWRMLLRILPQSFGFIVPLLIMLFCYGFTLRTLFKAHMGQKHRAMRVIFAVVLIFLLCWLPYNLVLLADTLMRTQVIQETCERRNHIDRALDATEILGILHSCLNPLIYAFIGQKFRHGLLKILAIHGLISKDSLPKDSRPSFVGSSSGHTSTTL

[5] = molecular target: T5, Vasoactive intestinal polypeptide receptor 1 (Homo sapiens, UniProt P32241); assay type: cell membranes, Membrane; details: ht-29; further: in other assays of this panel Not Active means under 50% inhibition at 10 µM
T5 sequence (P32241 whole entry): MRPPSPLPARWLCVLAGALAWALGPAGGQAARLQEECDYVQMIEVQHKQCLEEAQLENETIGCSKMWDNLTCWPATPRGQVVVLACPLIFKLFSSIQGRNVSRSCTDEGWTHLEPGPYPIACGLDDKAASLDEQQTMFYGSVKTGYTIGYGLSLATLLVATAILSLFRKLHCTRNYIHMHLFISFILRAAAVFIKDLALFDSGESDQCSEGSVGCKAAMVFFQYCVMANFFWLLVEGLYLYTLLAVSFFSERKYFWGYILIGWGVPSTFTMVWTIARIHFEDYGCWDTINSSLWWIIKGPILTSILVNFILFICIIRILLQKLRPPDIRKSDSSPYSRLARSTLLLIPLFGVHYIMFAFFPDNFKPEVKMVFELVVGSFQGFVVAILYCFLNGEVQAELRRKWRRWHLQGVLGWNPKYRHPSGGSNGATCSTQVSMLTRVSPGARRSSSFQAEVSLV

[6] = molecular target: T6, Alpha-1A adrenergic receptor (Rattus norvegicus, UniProt P43140); assay: DRUGMATRIX: Alpha-1A adrenergic receptor radioligand binding (ligand: prazosin); assay type: cell membranes, Wistar, Submaxillary gland, Membrane; details: Not Active = under 50% inhibition at 10 µM
T6 sequence (P43140 whole entry): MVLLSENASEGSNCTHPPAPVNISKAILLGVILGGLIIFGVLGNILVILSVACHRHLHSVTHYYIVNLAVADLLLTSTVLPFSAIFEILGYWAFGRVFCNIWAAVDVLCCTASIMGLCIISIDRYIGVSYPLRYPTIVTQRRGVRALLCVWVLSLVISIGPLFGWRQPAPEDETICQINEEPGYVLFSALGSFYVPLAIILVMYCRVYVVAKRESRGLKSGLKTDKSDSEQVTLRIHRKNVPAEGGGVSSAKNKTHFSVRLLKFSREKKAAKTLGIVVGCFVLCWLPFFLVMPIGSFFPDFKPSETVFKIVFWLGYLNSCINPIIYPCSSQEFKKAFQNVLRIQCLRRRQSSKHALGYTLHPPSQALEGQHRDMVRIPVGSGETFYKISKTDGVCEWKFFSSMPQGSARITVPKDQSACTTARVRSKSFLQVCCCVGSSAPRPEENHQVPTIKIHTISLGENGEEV

Chain of 5-hydroxytryptamine receptor 2B (P41595 whole entry): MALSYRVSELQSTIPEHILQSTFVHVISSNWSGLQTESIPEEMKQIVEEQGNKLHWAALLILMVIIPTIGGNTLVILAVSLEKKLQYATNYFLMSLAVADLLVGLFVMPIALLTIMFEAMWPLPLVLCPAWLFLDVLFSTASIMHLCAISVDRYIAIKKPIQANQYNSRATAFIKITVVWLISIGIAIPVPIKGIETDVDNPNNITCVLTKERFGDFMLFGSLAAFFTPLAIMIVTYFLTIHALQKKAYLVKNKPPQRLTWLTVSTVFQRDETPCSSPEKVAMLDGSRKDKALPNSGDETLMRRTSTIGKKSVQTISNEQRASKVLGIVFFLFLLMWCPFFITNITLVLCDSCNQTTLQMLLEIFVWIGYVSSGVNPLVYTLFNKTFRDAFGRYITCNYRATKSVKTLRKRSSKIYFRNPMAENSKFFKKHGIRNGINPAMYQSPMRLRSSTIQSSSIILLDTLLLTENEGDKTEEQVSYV
Chain of 5-hydroxytryptamine receptor 4 (O70528 whole entry): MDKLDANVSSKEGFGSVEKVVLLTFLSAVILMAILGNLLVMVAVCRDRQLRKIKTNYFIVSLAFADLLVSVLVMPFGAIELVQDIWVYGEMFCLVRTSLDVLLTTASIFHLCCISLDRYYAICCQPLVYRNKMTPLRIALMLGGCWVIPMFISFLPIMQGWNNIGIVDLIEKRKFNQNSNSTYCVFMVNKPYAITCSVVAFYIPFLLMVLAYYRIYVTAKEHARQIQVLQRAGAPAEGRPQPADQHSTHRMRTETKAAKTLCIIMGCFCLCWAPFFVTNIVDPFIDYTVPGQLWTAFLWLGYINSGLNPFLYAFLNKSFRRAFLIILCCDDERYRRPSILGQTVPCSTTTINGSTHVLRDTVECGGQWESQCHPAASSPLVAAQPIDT
Chain of C-C chemokine receptor type 2 (P41597 whole entry): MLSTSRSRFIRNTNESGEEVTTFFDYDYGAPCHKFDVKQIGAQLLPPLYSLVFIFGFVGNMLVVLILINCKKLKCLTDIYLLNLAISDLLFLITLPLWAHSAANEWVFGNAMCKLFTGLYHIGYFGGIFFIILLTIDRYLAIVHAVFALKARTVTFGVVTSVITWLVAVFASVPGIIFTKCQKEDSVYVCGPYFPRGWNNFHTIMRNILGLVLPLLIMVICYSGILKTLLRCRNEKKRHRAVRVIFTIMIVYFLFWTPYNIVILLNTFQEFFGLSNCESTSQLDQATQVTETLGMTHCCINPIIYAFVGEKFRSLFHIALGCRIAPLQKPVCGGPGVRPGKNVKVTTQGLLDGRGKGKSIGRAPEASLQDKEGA

COc1c(C)c2c(c(O)c1C/C=C(\C)CCC(=O)OCCN1CCOCC1)C(=O)OC2 [MYCOPHENOLATE MOFETIL]
Not Active: IC50 [1] | IC50 (Endothelin-1 receptor) | IC50 [2] | IC50 (Adenosine receptor A1) | IC50 [3] | IC50 (Cathepsin G) | IC50 [4] | IC50 [5] | IC50 [6]

CN[C@H](CC(C)C)C(=O)N[C@H]1C(=O)N[C@@H](CC(N)=O)C(=O)N[C@H]2C(=O)N[C@H]3C(=O)N[C@H](C(=O)N[C@H](C(=O)O)c4cc(O)cc(O)c4-c4cc3ccc4O)[C@H](O)c3ccc(c(Cl)c3)Oc3cc2cc(c3O[C@@H]2O[C@H](CO)[C@@H](O)[C@H](O)[C@H]2O[C@H]2C[C@](C)(N)[C@H](O)[C@H](C)O2)Oc2ccc(cc2Cl)[C@H]1O [VANCOMYCIN]
Not Active: IC50 [1] | IC50 (Endothelin-1 receptor) | IC50 [2] | IC50 (Adenosine receptor A1) | IC50 [3] | IC50 (Cathepsin G) | IC50 [4] | IC50 [5] | IC50 [6]

CC(C)[C@H](N)C(=O)OCCOCn1cnc2c(=O)nc(N)[nH]c21 [VALACYCLOVIR]
Not Active: IC50 [1] | IC50 (Endothelin-1 receptor) | IC50 [2] | IC50 (Adenosine receptor A1) | IC50 [3] | IC50 (Cathepsin G) | IC50 [4] | IC50 [5] | IC50 [6]

COS(C)(=O)=O [METHANESULFONIC ACID METHYL ESTER]
Not Active: IC50 [1] | IC50 (Endothelin-1 receptor) | IC50 [2] | IC50 (Adenosine receptor A1) | IC50 [3] | IC50 (Cathepsin G) | IC50 [4] | IC50 [5] | IC50 [6]

CC1CN(c2cc3c(cc2F)c(=O)c(C(=O)O)cn3-c2ccc(F)cc2F)CCN1 (stereo unspecified) [TEMAFLOXACIN]
Not Active: IC50 [1] | IC50 (Endothelin-1 receptor) | IC50 [2] | IC50 (Adenosine receptor A1) | IC50 [3] | IC50 (Cathepsin G) | IC50 [4] | IC50 [5] | IC50 [6]

O=C1c2c(O)ccc(O)c2C(=O)c2c(NCCNCCO)ccc(NCCNCCO)c21 [MITOXANTRONE]
Not Active: IC50 [1] | IC50 (Endothelin-1 receptor) | IC50 [2] | IC50 (Adenosine receptor A1) | IC50 [3] | IC50 (Cathepsin G) | IC50 [4] | IC50 [5] | IC50 [6]

CN(C)[C@@H]1C(O)=C(C(N)=O)C(=O)[C@@]2(O)C(O)=C3C(=O)c4c(O)cccc4[C@@](C)(O)[C@H]3C[C@@H]12 [TETRACYCLINE]
Not Active: IC50 [1] | IC50 (Endothelin-1 receptor) | IC50 [2] | IC50 (Adenosine receptor A1) | IC50 [3] | IC50 (Cathepsin G) | IC50 [4] | IC50 [5] | IC50 [6]

COc1cc(C(=O)NC2CCCNC2)cc(OC)c1OC (stereo unspecified) [TROXIPIDE]
Not Active: IC50 [1] | IC50 (Endothelin-1 receptor) | IC50 [2] | IC50 (Adenosine receptor A1) | IC50 [3] | IC50 (Cathepsin G) | IC50 [4] | IC50 [5] | IC50 [6]

IVERMECTIN
Not Active: IC50 [1] | Ki [1] | IC50 (Endothelin-1 receptor) | Ki (Endothelin-1 receptor) | IC50 [2] | Ki [2] | IC50 (Adenosine receptor A1) | Ki (Adenosine receptor A1) | IC50 [3] | Ki [3] | IC50 (Cathepsin G) | Ki (Cathepsin G) | IC50 [4] | Ki [4] | IC50 [5] | Ki [5] | IC50 [6] | Ki [6]

CC1(C)[C@H]2CC[C@]1(C)C(=O)C2 [(-)-CAMPHOR]
Not Active: IC50 [1] | IC50 (Endothelin-1 receptor) | IC50 [2] | IC50 (Adenosine receptor A1) | IC50 [3] | IC50 (Cathepsin G) | IC50 [4] | IC50 [5] | IC50 [6]

Nc1ccc(S(N)(=O)=O)cc1 [SULFANILAMIDE]
Not Active: IC50 [1] | IC50 (Endothelin-1 receptor) | IC50 [2] | IC50 (Adenosine receptor A1) | IC50 [3] | IC50 (Cathepsin G) | IC50 [4] | IC50 [5] | IC50 [6]

c1ccc2[nH]c(-c3cscn3)nc2c1 [THIABENDAZOLE]
Not Active: IC50 [1] | IC50 (Endothelin-1 receptor) | IC50 [2] | IC50 (Adenosine receptor A1) | IC50 [3] | IC50 (Cathepsin G) | IC50 [4] | IC50 [5] | IC50 [6]

CC[C@H]1OC(=O)[C@H](C)[C@@H](O[C@H]2C[C@@](C)(OC)[C@@H](O)[C@H](C)O2)[C@H](C)[C@@H](O[C@@H]2O[C@H](C)C[C@H](N(C)C)[C@H]2O)[C@](C)(O)C[C@@H](C)/C(=N\OCOCCOC)[C@H](C)[C@@H](O)[C@]1(C)O [ROXITHROMYCIN]
Not Active: IC50 [1] | IC50 (Endothelin-1 receptor) | IC50 [2] | IC50 (Adenosine receptor A1) | IC50 [3] | IC50 (Cathepsin G) | IC50 [4] | IC50 [5] | IC50 [6]

Source: ChEMBL document CHEMBL1909046, “DrugMatrix in vitro pharmacology data”
